According to paper PMC6385122, “Design and Synthesis of Arylamidine Derivatives as Serotonin/Norepinephrine Dual Reuptake Inhibitors” (Molecules, 2019):
Structures can show the parent of a compound that is named as a salt.

Key:
[1] = biological target: T1, 5-HT reuptake (5-HT transporter) (Rattus norvegicus, UniProt P31652); experiment: Inhibition of 5-HT reuptake in rat brain synaptosome (3H-5-HT uptake); assay type: biochemical; settings: for inhibition at 10 µM: read-out: 5-HT reuptake percent inhibition
T1 construct: from tissue; host or cells: Wistar rat brain (procerebrum; crude synaptosomal supernatant)
T1 sequence (P31652 whole entry): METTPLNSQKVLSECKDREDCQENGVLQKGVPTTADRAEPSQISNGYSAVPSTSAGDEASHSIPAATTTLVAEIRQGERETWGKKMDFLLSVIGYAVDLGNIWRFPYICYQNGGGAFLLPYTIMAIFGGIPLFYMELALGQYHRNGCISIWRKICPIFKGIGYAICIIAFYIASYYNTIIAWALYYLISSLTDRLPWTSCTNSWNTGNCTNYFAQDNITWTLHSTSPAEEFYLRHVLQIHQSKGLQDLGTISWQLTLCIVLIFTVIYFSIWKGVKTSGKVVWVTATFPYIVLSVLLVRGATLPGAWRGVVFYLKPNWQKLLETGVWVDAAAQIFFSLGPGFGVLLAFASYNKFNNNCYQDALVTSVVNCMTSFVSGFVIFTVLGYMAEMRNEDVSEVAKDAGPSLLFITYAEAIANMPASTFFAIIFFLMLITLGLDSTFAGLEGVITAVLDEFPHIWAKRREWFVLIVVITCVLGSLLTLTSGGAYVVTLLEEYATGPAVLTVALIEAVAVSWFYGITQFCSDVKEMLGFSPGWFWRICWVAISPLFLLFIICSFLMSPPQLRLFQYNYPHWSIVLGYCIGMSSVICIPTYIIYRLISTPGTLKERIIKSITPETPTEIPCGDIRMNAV
Procedure: (§1) All the target compounds were evaluated for their inhibitory activity against the reuptake of 5-HT and NE at the cellular level. Rat brain tissue was used for the uptake test, which included ^3H-5-HT and ^3H-NE [15]. 1-[7,8-^3H]-Noradrenaline and 5-hydroxy-[^3H]-tryptamine trifluoroacetate were obtained from Amersham Corporation.
(§2) Adult male Wistar rats were used. Animals were killed by decapitation and the whole brain, with the exception of the brainstem and cerebellum, was quickly removed. The procerebrum region was prepared, weighed, and homogenized in 10 volumes of ice-cold 0.32 mol/L sucrose solution using a glass homogenizer. The homogenate was centrifuged at 1000× g and 4 °C for 10 min. The supernatant was decanted and used for the uptake experiments. […] For each assay, three tubes were incubated with the vehicle (20 µL) at 0 °C in an ice bath. After incubation, the tubes were immediately filtered with a cell harvester. The fiberglass filter membrane was washed three times with ice-cold saline, placed in a scintillation vial, and counted in liquid scintillation cocktail (4 mL). Active uptake was the difference between the counts per minute at 37 and 0 °C. The percent inhibition at each drug concentration was the mean of three measurements.

[2] = biological target: T2, NE reuptake (NE transporter) (Rattus norvegicus, UniProt Q63380); experiment: Inhibition of NE reuptake in rat brain synaptosome (3H-NE uptake); assay type: biochemical; settings: for inhibition at 10 µM: read-out: NE reuptake percent inhibition
T2 construct: from tissue; host or cells: Wistar rat brain (procerebrum; crude synaptosomal supernatant)
T2 sequence (Q63380 1-617): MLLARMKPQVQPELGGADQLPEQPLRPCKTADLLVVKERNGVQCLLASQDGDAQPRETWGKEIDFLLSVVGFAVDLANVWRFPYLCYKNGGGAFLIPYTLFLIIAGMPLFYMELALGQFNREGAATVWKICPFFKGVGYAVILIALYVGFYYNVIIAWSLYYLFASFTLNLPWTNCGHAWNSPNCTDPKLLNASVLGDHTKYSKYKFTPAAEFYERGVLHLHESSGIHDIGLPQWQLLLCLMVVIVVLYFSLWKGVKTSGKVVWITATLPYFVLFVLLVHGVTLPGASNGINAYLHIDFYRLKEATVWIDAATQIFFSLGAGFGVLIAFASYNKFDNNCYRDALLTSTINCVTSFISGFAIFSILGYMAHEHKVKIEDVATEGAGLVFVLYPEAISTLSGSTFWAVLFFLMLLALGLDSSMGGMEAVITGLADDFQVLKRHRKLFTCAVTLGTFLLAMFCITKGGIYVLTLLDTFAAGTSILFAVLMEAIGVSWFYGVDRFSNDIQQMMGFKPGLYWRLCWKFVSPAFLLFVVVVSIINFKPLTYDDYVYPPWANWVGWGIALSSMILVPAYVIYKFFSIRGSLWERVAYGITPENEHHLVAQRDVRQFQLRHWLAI
Procedure: as §1, §2

rats = experiment: Tail suspension test (TST) in rats; assay type: in vivo, rat; settings: male rats, 30 mg/kg PO; for Immobility Time: 60 min after administration; for Rate of Shorten Time (%): compared with the negative control group
Procedure: Based on the in vitro results, compounds I-19, II-4, and II-5 were selected for the tail suspension test (TST) in rats. The TST has been used widely as a preclinical model for screening antidepressant activity, and it is sensitive to commercially available antidepressant drugs. In the assay, rats are suspended by tail and the time that the animal is immobile is recorded. The compounds were administered to male rats at a dose of 30 mg/kg (PO). […] In addition, the safety profile of compound II-5 was also explored with a preliminary acute toxicity test in mice at a single dose of 200 or 400 mg/kg (PO) (n = 6).
For two days before the formal experiment, the rats in each group were given doses orally once a day in the morning and in the afternoon. The rats were given doses orally once in each group in the formal experiment. After 60 min of administration, the rats were suspended head-down more than 50 cm from the ground with a 12-cm-long piece of insulating tape at a distance of 1 cm from the tail tip. The distance between adjacent rats was 15 cm. The immobility time of the rats was recorded. The rate of change in the immobility time of the rats in the test drug group and the positive control group was calculated and compared with the negative control group. Statistical analysis was performed using Prism 7.0 (GraphPad Software, San Diego, CA, USA).

Structure (SMILES)	melting point [°C]	also measured
Fc1ccccc1/C(=N\Cc1ccccc1)N1CCNCC1 (as salt: hydrochloride) [Compound I-7, (E)-N-((2-Fluorophenyl)(piperazin-1-yl)methylene)-1-phenylmethanaminehydrochloride]	182 to 184	–
N#Cc1ccc(/C(=N\Cc2ccccc2)N2CCNCC2)cc1 (as salt: hydrochloride) [Compound I-8, (E)-4-((Benzylimino)(piperazin-1-yl)methyl)benzonitrilehydrochloride]	205 to 207	–
N#Cc1cccc(/C(=N\Cc2ccccc2)N2CCNCC2)c1 (as salt: hydrochloride) [Compound I-9, (E)-3-((Benzylimino)(piperazin-1-yl)methyl)benzonitrilehydrochloride]	190 to 192	–
Cc1ccc(/C(=N\Cc2ccccc2)N2CCNCC2)cc1 (as salt: hydrochloride) [Compound I-10, (E)-1-Phenyl-N-(piperazin-1-yl(p-tolyl)methylene)methanaminehydrochloride]	172 to 174	–
O=[N+]([O-])c1ccc(/C(=N\Cc2ccccc2)N2CCNCC2)c(Cl)c1 (as salt: hydrochloride) [Compound I-11, (E)-N-((2-Chloro-4-nitrophenyl)(piperazin-1-yl)methylene)-1-phenylmethanaminehydrochloride]	195 to 197	–
O=[N+]([O-])c1ccc(/C(=N\Cc2ccc(Cl)cc2)N2CCNCC2)cc1 (as salt: hydrochloride) [Compound I-12, (E)-1-(4-Chlorophenyl)-N-((4-nitrophenyl)(piperazin-1-yl)methylene)methanaminehydrochloride]	172 to 174	–
Clc1ccc(C/N=C(\c2ccccc2Cl)N2CCNCC2)cc1 (as salt: hydrochloride) [Compound I-13, (E)-1-(4-Chlorophenyl)-N-((2-chlorophenyl)(piperazin-1-yl)methylene)methanaminehydrochloride]	181 to 183	–
Clc1ccc(C/N=C(\c2cccc(Cl)c2)N2CCNCC2)cc1 (as salt: hydrochloride) [Compound I-14, (E)-1-(4-Chlorophenyl)-N-((3-chlorophenyl)(piperazin-1-yl)methylene)methanaminehydrochloride]	218 to 220	–
Clc1ccc(C/N=C(\c2ccc(Cl)cc2)N2CCNCC2)cc1 (as salt: hydrochloride) [Compound I-15, (E)-1-(4-Chlorophenyl)-N-((4-chlorophenyl)(piperazin-1-yl)methylene)methanaminehydrochloride]	157 to 159	–
Fc1ccc(/C(=N\Cc2ccc(Cl)cc2)N2CCNCC2)cc1 (as salt: hydrochloride) [Compound I-16, (E)-1-(4-Chlorophenyl)-N-((4-fluorophenyl)(piperazin-1-yl)methylene)methanaminehydrochloride]	165 to 167	–
Fc1ccccc1/C(=N\Cc1ccc(Cl)cc1)N1CCNCC1 (as salt: hydrochloride) [Compound I-17, (E)-1-(4-Chlorophenyl)-N-((2-fluorophenyl)(piperazin-1-yl)methylene)methanaminehydrochloride]	215 to 217	–
N#Cc1ccc(/C(=N\Cc2ccc(Cl)cc2)N2CCNCC2)cc1 (as salt: hydrochloride) [Compound I-18, (E)-1-(4-Chlorophenyl)-N-((4-cyanophenyl)(piperazin-1-yl)methylene)methanaminehydrochloride]	180 to 182	–
Cc1ccc(/C(=N\Cc2ccc(Cl)cc2)N2CCNCC2)cc1 (as salt: hydrochloride) [Compound I-20, (E)-1-(4-Chlorophenyl)-N-(piperazin-1-yl(p-tolyl)methylene)methanaminehydrochloride]	183 to 185	–
COc1ccc(C/N=C(\c2ccc([N+](=O)[O-])cc2)N2CCNCC2)cc1 (as salt: hydrochloride) [Compound I-21, (E)-1-(4-Methoxyphenyl)-N-((4-nitrophenyl)(piperazin-1-yl)methylene)methanaminehydrochloride]	210 to 212	–
COc1ccc(/C(=N\Cc2ccccc2)N2CCNCC2)cc1.Cl [Compound I-1, (E)-N-((4-Methoxyphenyl)(piperazin-1-yl)methylene)-1-phenylmethanamine hydrochloride]	195 to 197	inhibition at 10 µM [1]: 65%; inhibition at 10 µM [2]: 67%
N#Cc1cccc(/C(=N\Cc2ccc(Cl)cc2)N2CCNCC2)c1 [Compound I-19, (E)-1-(4-Chlorophenyl)-N-((3-cyanophenyl)(piperazin-1-yl)methylene)methanaminehydrochloride]	–	IC50 [1]: 830 nM; inhibition at 10 µM [1]: 82%; IC50 [2]: 560 nM; inhibition at 10 µM [2]: 78%; Immobility Time (rats): 34 ± 17 s; Rate of Shorten Time (%) (rats): 37.8%
CNCC[C@H](Oc1cccc2ccccc12)c1cccs1 [Duloxetine, reference compound]	–	Immobility Time (rats): 11 ± 5 s; Rate of Shorten Time (%) (rats): 79.0%
Fc1ccccc1/C(=N\Cc1cccc2ccccc12)N1CCNCC1 [II-4, (E)-N-((2-Fluorophenyl)(piperazin-1-yl)methylene)-1-(naphthalen-1-yl)methanaminehydrochloride]	–	IC50 [1]: 130 nM; inhibition at 10 µM [1]: 90%; IC50 [2]: 880 nM; inhibition at 10 µM [2]: 78%; Immobility Time (rats): 33 ± 19 s; Rate of Shorten Time (%) (rats): 39.7%

More lines, main results first:

melting point [°C]	Structure (SMILES)	also measured
187 to 189	c1ccc(/C(=N\Cc2cccc3ccccc23)N2CCNCC2)cc1 (as salt: hydrochloride) [II-1, (E)-1-(Naphthalen-1-yl)-N-(phenyl(piperazin-1-yl)methylene)methanaminehydrochloride]	–
202 to 204	O=[N+]([O-])c1ccc(/C(=N\Cc2cccc3ccccc23)N2CCNCC2)cc1 (as salt: hydrochloride) [II-2, (E)-1-(Naphthalen-1-yl)-N-((4-nitrophenyl)(piperazin-1-yl)methylene)methanaminehydrochloride]	–
193 to 195	Fc1ccc(/C(=N\Cc2cccc3ccccc23)N2CCNCC2)cc1 (as salt: hydrochloride) [II-3, (E)-N-((4-Fluorophenyl)(piperazin-1-yl)methylene)-1-(naphthalen-1-yl)methanaminehydrochloride]	–
198 to 200	Clc1cccc(/C(=N\Cc2cccc3ccccc23)N2CCNCC2)c1 (as salt: hydrochloride) [II-6, (E)-N-((3-Chlorophenyl)(piperazin-1-yl)methylene)-1-(naphthalen-1-yl)methanaminehydrochloride]	–
210 to 212	Clc1ccc(/C(=N\Cc2cccc3ccccc23)N2CCNCC2)cc1 (as salt: hydrochloride) [II-7, (E)-N-((4-Chlorophenyl)(piperazin-1-yl)methylene)-1-(naphthalen-1-yl)methanaminehydrochloride]	–
158 to 160	N#Cc1ccc(/C(=N\Cc2cccc3ccccc23)N2CCNCC2)cc1 (as salt: hydrochloride) [II-8, (E)-4-(((Naphthalen-1-ylmethyl)imino)(piperazin-1-yl)methyl)benzonitrilehydrochloride]	–
168 to 170	N#Cc1cccc(/C(=N\Cc2cccc3ccccc23)N2CCNCC2)c1 (as salt: hydrochloride) [II-9, (E)-3-(((Naphthalen-1-ylmethyl)imino)(piperazin-1-yl)methyl)benzonitrilehydrochloride]	–
178 to 180	Cc1ccc(/C(=N\Cc2cccc3ccccc23)N2CCNCC2)cc1 (as salt: hydrochloride) [II-10, (E)-1-(Naphthalen-1-yl)-N-(piperazin-1-yl(p-tolyl)methylene)methanaminehydrochloride]	–
173 to 175	O=[N+]([O-])c1cccc2c(/C(=N\Cc3ccccc3)N3CCNCC3)cccc12 (as salt: hydrochloride) [III-1, (E)-N-((5-Nitronaphthalen-1-yl)(piperazin-1-yl)methylene)-1-phenylmethanaminehydrochloride]	–
